Test results: ChEMBL document CHEMBL1143923, “Synthesis, anti-HIV-1 activity, and modeling studies of N-3 Boc TSAO compound” (Bioorg Med Chem Lett, 2008)
Blank lines part the entries; values can stand above or below the compound they belong to. Active and inactive are the calls of the source. The calls are words filed in the database; no cut-off is given here.

What was measured:
[1] = test system: Human immunodeficiency virus 1; assay: Antiviral activity against HIV1 3B in CEM cells assessed as inhibition of viral replication; type: functional, organism-based; conditions: Human immunodeficiency virus 1, 3B, CCRF-CEM
[2] = test system: Human immunodeficiency virus 2; assay: Antiviral activity against HIV2 ROD in CEM cells assessed as inhibition of viral replication; type: functional, organism-based; conditions: CCRF-CEM
[3] = Cytotoxicity against human CEM cells; type: cell-based; conditions: CEM (CCRF-CEM) cells

SMILES: Cc1cn([C@@H]2O[C@H](CO[Si](C)(C)C(C)(C)C)[C@@]3(OS(=O)(=O)C=C3N)[C@H]2O[Si](C)(C)C(C)(C)C)c(=O)[nH]c1=O
EC50 [1]: 60 nM
Activity [2]: inactive

SMILES: Cc1cn([C@@H]2O[C@H](CO[Si](C)(C)C(C)(C)C)[C@@]3(OS(=O)(=O)C=C3N)[C@H]2O[Si](C)(C)C(C)(C)C)c(=O)n(C)c1=O
EC50 [1]: 130 nM
Activity [2]: inactive

EC50 [1]: 23 nM
SMILES: Cc1cn([C@@H]2O[C@H](CO[Si](C)(C)C(C)(C)C)[C@@]3(OS(=O)(=O)C=C3N)[C@H]2O[Si](C)(C)C(C)(C)C)c(=O)n(C(=O)OC(C)(C)C)c1=O
Activity [2]: inactive
CC50 [3]: 26200 nM
